In US20090306126A1, “Indole Derivatives” (ASTRAZENECA AB, priority 2006, published 2009) one finds IC50 data, which are given here for four molecules.

In assay [1] the target is T1, p110α Type Ia human PI3K (Homo sapiens, UniProt P42336).
T1 construct: full length DNA of each of the p110α, p110β and p110δ Type Ia human PI3K p110 isoforms; 6-His; made in house
In words: In vitro PI3K enzyme assay (AlphaScreen), Test (a). Format: biochemical. The following applies: recombinant enzyme, ATP 4 μM, read-out: IC50 versus p110α Type Ia human PI3K. The source says: (a) In Vitro PI3K Enzyme Assay
The assay used AlphaScreen technology (Gray et al., Analytical Biochemistry, 2003, 313: 234-245) to determine the ability of test compounds to inhibit phosphorylation by recombinant Type I PI3K enzymes of the lipid PI(4,5)P2.
DNA fragments encoding human PI3K catalytic and regulatory subunits were isolated from cDNA libraries using standard molecular biology and PCR cloning techniques. The selected DNA fragments were used to generate baculovirus expression vectors. In particular, full length DNA of each of the p110α, p110β and p110δ Type Ia human PI3K p110 isoforms (EMBL Accession Nos. HSU79143, S67334, Y10055 for p110α, p110β and p110δ respectively) were sub-cloned into a pDEST10 vector (Invitrogen Limited, Fountain Drive, Paisley, UK). The vector is a Gateway-adapted version of Fastbac1 containing a 6-His epitope tag. A truncated form of Type Ib human PI3K p110γ isoform corresponding to amino acid residues 144-1102 (EMBL Accession No. X8336A) and the full length human p85α regulatory subunit (EMBL Accession No. HSP13KIN) were also sub-cloned into pFastBac1 vector containing a 6-His epitope tag. The Type Ia p110 constructs were co-expressed with the p85α regulatory subunit. Following expression in the baculovirus system using standard baculovirus expression techniques, expressed proteins were purified using the His epitope tag using standard purification techniques.
DNA corresponding to amino acids 263 to 380 of human general receptor for phosphoinositides (Grp1) PH domain was isolated from a cDNA library using standard molecular biology and PCR cloning techniques. The resultant DNA fragment was sub-cloned into a pGEX 4T1 E. coli expression vector containing a GST epitope tag (Amersham Pharmacia Biotech, Rainham, Essex, UK) as described by Gray et al., Analytical Biochemistry, 2003, 313: 234-245). The GST-tagged Grp1 PH domain was expressed and purified using standard techniques.
Test compounds were prepared as 10 mM stock solutions in DMSO and diluted into water as required to give a range of final assay concentrations. Aliquots (2 μl) of each compound dilution were placed into a well of a Greiner 384-well low volume (LV) white polystyrene plate (Greiner Bio-one, Brunel Way, Stonehouse, Gloucestershire, UK Catalogue No. 784075). […]
Biotinylated-DiC8-PI(3,4,5)P3 (50 nM; Cell Signals Inc., Catalogue No. 107), recombinant purified GST-Grp1 PH protein (2.5 nM) and AlphaScreen Anti-GST donor and acceptor beads (100 ng; Packard Bioscience Limited, Station Road, Pangbourne, Berkshire, UK, Catalogue No. 6760603M) were added and the assay plates were left for about 5 to 20 hours at room temperature in the dark. The resultant signals arising from laser light excitation at 680 nm were read using a Packard AlphaQuest instrument. […]

The target of assay [2] is mTOR PI kinase-related kinase (Homo sapiens, UniProt P42345). Nature of the assay: In vitro mTOR PI kinase-related kinase assay (AlphaScreen), Test (b). Particulars: recombinant mTOR (1362-2549), ATP 20 μM, read-out: IC50 versus mTOR PI kinase-related kinase. Format: biochemical. The procedure:
(b) In Vitro mTOR PI Kinase-Related Kinase Assay
The assay used AlphaScreen technology (Gray et al, Analytical Biochemistry, 2003, 313: 234-245) to determine the ability of test compounds to inhibit phosphorylation by recombinant mTOR. […]
Each reaction was stopped by the addition of 10 μl of a mixture of EDTA (50 mM), bovine serum albumin (BSA; 0.5 mg/ml) and Tris-HCl pH7.4 buffer (50 mM) containing p70 S6 Kinase (T389) 1A5 Monoclonal Antibody (Cell Signalling Technology, Catalogue No. 9206B) and AlphaScreen Streptavidin donor and Protein A acceptor beads (200 ng; Perkin Elmer, Catalogue No. 6760002B and 6760137R respectively) were added and the assay plates were left for about 20 hours at room temperature in the dark. The resultant signals arising from laser light excitation at 680 nm were read using a Packard Envision instrument.
Phosphorylated biotinylated peptide is formed in situ as a result of mTOR mediated phosphorylation. […] Upon laser light excitation at 680 nm, the donor bead:acceptor bead complex produces a signal that can be measured. […]
mTOR enzyme inhibition for a given test compound was expressed as an IC50 value.

The test system of assay [3] is phosphorylation of Serine 473 in Akt. Nature of the assay: In vitro phospho-Ser473 Akt assay in MDA-MB-468 cells, Test (c). Format: cell-based. The following applies: Homo sapiens, 2 hours, read-out: IC50, inhibition of phosphorylation of Serine 473 in Akt. Here is the method:
(c) In Vitro Phospho-Ser473 Akt Assay
This assay determines the ability of test compounds to inhibit phosphorylation of Serine 473 in Akt as assessed using Acumen Explorer technology (TTP LabTech Limited, Royston, Herts, SG8 6EE, UK), a plate reader that can be used to rapidly quantitate features of images generated by laser-scanning.
A MDA-MB-468 human breast adenocarcinoma cell line (LGC Promochem, Teddington, Middlesex, UK, Catalogue No. HTB-132) was routinely maintained at 37° C. with 5% CO2 up to a confluency of 70-90% in DMEM containing 10% FCS and 1% L-glutamine.
For the assay, the cells were detached from the culture flask using ‘Accutase’ (Innovative Cell Technologies Inc., San Diego, Calif., USA; Catalogue No. AT104) using standard tissue culture methods and resuspended in media to give 5.5×10^4 cells per ml. Aliquots (90 μl) were seeded into each of the inner 60 wells of a black ‘Costar’ 96-well plate (Corning Inc., NY, USA; Catalogue No. 3904) to give a density of ˜5000 cells per well. Aliquots (90 μl) of culture media were placed in the outer wells to prevent edge effects. [An alternative cell handling procedure involved the maintenance of the cells in a ‘SelecT’ robotic device (The Automation Partnership, Royston, Herts SG8 5WY, UK). Cells were resuspended in media to give 5×10^4 cells per ml. Aliquots (100 μl) were seeded into the wells of a black ‘Costar’ 96-well plate.] The cells were incubated overnight at 37° C. with 5% CO2 to allow them to adhere.
On day 2, the cells were treated with test compounds. Test compounds were prepared as 10 mM stock solutions in DMSO and serially diluted as required with DMSO and with growth media to give a range of concentrations that were 10-fold the required final test concentrations. Aliquots (10 μl) of each compound dilution were placed in duplicate wells to give the final required concentrations. As a minimum response control, each plate contained wells having a final concentration of 30 μM LY294002 (Calbiochem, Beeston, UK, Catalogue No. 440202). As a maximum response control, wells contained 0.5% DMSO instead of test compound. [An alternative cell treatment procedure involved the transfer of test compounds to the wells using an ‘Echo 550’ liquid dispenser (Labcyte Inc., Sunnyvale, Calif. 94089, USA). Test compounds were prepared as 10 mM stock solutions in DMSO and aliquots (40 μl) of each compound were dispensed into one well of a quadrant of wells within a 384-well plate (Labcyte Inc., Catalogue No. P-05525-CV1). Four concentrations of each compound were prepared in each quadrant of wells in the 384-well plate using a ‘Hydra II’ pipettor (Matrix Technologies Corporation, Handforth SK9 3LP, UK). […]

The structures appear in SMILES notation.

T1 sequence (P42336 whole entry, canonical isoform): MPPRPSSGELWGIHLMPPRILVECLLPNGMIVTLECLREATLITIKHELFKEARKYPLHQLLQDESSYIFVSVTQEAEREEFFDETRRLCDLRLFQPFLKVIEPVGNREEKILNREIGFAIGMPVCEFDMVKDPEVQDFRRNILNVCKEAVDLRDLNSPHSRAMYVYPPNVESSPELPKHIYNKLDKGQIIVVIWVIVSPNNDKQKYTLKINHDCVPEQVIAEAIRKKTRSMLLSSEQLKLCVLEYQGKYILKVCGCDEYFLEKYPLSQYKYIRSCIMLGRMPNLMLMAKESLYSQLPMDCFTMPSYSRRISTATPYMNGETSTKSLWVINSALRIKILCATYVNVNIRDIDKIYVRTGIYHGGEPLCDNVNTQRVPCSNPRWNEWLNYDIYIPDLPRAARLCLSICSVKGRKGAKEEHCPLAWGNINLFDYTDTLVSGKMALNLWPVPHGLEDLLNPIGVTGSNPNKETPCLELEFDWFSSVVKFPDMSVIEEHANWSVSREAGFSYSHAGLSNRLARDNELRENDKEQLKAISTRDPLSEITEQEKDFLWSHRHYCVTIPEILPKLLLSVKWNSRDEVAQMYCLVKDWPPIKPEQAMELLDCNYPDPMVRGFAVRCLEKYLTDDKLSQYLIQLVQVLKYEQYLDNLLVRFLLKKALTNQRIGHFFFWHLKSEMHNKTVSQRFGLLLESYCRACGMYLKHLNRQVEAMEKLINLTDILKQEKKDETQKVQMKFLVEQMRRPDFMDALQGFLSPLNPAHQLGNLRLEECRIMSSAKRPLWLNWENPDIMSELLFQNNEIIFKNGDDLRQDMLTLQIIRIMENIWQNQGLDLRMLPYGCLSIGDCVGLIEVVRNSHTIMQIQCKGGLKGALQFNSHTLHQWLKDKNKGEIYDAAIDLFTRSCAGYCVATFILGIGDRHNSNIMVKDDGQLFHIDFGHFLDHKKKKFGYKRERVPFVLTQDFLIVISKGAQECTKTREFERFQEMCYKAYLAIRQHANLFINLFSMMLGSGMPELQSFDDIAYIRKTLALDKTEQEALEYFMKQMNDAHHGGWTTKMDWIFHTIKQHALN
T1 sequence (P27986 whole entry partner, canonical isoform): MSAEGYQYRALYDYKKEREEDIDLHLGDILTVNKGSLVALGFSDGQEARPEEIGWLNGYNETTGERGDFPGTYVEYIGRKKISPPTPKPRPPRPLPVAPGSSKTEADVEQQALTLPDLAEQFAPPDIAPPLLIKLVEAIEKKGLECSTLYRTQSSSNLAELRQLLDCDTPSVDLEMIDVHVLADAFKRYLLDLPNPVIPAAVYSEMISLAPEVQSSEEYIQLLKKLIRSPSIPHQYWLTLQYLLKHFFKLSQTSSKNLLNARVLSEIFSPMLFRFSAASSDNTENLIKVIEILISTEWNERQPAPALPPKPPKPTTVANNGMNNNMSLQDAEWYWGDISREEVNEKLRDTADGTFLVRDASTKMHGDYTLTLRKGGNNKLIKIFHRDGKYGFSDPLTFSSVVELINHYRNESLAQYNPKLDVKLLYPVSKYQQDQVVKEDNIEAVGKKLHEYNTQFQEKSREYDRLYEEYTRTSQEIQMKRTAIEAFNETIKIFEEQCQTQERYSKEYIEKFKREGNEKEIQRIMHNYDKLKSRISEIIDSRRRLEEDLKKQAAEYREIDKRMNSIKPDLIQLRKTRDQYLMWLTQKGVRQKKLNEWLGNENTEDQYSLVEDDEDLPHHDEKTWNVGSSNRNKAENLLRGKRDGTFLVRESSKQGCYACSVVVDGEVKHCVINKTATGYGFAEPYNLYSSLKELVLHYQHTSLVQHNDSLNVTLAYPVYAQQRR
Chain of mTOR PI kinase-related kinase (P42345 1362-2549): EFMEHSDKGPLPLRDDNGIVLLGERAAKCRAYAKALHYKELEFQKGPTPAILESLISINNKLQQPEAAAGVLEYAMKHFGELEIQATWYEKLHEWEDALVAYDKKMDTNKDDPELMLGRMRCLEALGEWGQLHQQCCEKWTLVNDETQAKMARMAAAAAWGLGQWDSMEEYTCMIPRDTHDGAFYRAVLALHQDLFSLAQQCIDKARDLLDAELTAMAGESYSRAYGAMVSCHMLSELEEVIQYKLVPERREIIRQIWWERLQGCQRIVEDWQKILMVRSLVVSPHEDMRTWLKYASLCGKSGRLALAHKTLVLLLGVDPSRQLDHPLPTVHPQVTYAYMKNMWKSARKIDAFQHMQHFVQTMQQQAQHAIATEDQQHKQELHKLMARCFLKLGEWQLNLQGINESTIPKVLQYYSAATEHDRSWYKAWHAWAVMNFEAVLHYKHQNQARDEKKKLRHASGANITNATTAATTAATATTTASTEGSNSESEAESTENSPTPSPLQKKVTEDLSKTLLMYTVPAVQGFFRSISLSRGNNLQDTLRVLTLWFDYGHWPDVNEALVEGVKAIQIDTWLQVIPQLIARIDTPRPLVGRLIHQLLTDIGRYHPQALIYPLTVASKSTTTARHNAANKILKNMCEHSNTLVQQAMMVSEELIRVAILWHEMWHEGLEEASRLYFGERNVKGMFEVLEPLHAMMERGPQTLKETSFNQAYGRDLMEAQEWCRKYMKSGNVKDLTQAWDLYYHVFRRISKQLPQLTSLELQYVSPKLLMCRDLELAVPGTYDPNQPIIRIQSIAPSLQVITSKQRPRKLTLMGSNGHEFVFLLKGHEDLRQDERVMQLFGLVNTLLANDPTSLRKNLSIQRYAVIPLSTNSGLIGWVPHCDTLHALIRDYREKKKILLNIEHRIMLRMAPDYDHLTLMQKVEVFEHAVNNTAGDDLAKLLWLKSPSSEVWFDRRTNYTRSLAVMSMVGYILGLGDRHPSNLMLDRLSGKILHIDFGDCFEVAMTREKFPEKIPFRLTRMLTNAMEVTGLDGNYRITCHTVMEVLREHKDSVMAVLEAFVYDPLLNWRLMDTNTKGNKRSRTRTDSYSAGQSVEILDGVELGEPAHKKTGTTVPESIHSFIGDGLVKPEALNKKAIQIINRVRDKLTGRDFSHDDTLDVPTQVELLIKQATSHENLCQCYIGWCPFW

In the case of `CS(=O)(=O)Nc1cc(-c2cnc3[nH]ccc3c2)cnc1Cl` [Example 1, N-[2-chloro-5-(1H-pyrrolo[2,3-b]pyridin-5-yl)pyridin-3-yl]methanesulphonamide], the half-inhibitory concentration (IC50) in assay [1] was ~500 nM; in assay [2] it was ~1000 nM; in assay [3], ~13000 nM.
For `O=S(=O)(Nc1cc(-c2cnc3[nH]ccc3c2)cnc1Cl)c1ccccc1` [Example 3, N-[2-chloro-5-(1H-pyrrolo[2,3-b]pyridin-5-yl)pyridin-3-yl]benzenesulphonamide], the figures for the IC50 in assay [1] and in assay [3] were ~200 nM and ~5000 nM, respectively.
As to `Cc1nc2[nH]ccc2cc1-c1cnc(Cl)c(NS(=O)(=O)c2ccccc2)c1` [Example 8, N-[2-chloro-5-(6-methyl-1H-pyrrolo[2,3-b]pyridin-5-yl)pyridin-3-yl]benzenesulphonamide], the IC50 in assay [1] was ~100 nM; in assay [3], ~3000 nM.
The matching figures for `Cc1nc2[nH]cnc2cc1-c1cnc(Cl)c(NS(=O)(=O)c2ccccc2)c1` [Example 7, N-[2-chloro-5-(5-methyl-3H-imidazo[4,5-b]pyridin-6-yl)pyridin-3-yl]benzenesulphonamide]: ~500 nM and ~2000 nM.
